Several values for one entry are separate records, joined by “and”; a condition that tells them apart may be missing. Equal values may be shown once. Toxic doses and inconclusive results are not listed.
Test system: BDF1 mice, intracerebral B16 melanoma, median survival T/C
Test: NCI In Vivo Anticancer Drug Screen. Data for tumor model B16 Melanoma (intracerebral) in B6D2F1 (BDF1) mice
Details: endpoint: median survival time, higher = longer survival
Method: The antitumor activity of compounds was measured in mice bearing transplantable tumors. Survival or tumor size were measured and the results are expressed as the measurement made in the treated group (T) divided by the measurement made in the vehicle treated control group (C). The tumor model used in this assay is B16 Melanoma (intracerebral) in B6D2F1 (BDF1) mice

[1] = dose: 32.0 mg/kg/injection, schedule: Q01DX005 (ip), vehicle: saline with Tween-80
[2] = dose: 100.0 mg/kg/injection, schedule: Q01DX005 (ip), vehicle: Klucel (hydroxypropylcellulose) (HPC)

N[C@@H](Cc1ccc(N(CCCl)CCCl)cc1)C(=O)O
T/C (dose: 0.5 mg/kg/injection, schedule: Q01DX009 (ip), vehicle: saline): 95 % of control | T/C (dose: 0.5 mg/kg/injection, schedule: Q01DX009 (ip), vehicle: water): 100 % of control | T/C (dose: 1.0 mg/kg/injection, schedule: Q01DX009 (ip), vehicle: saline): 100 % of control | T/C (dose: 1.0 mg/kg/injection, schedule: Q01DX009 (ip), vehicle: water): 104 % of control | T/C (dose: 2.0 mg/kg/injection, schedule: Q01DX009 (ip), vehicle: saline): 120 % of control | T/C (dose: 2.0 mg/kg/injection, schedule: Q01DX009 (ip), vehicle: water): 116 % of control | T/C (dose: 4.0 mg/kg/injection, schedule: Q01DX009 (ip), vehicle: saline): 87 % of control

O=NN(CCF)C(=O)NC1C(O)CCCC1O (stereo unspecified)
T/C (dose: 13.0 mg/kg/injection, schedule: Q01DX001 (ip), vehicle: saline): 115 % of control | T/C (dose: 17.8 mg/kg/injection, schedule: Q01DX001 (ip), vehicle: Klucel (hydroxypropylcellulose) (HPC)): 120 % of control | T/C (dose: 21.6 mg/kg/injection, schedule: Q01DX001 (ip), vehicle: saline): 111 % of control | T/C (dose: 40.0 mg/kg/injection, schedule: Q01DX001 (ip), vehicle: Klucel (hydroxypropylcellulose) (HPC)): 160 % of control | T/C (dose: 60.0 mg/kg/injection, schedule: Q01DX001 (ip), vehicle: Klucel (hydroxypropylcellulose) (HPC)): 171 % of control | T/C (dose: 60.0 mg/kg/injection, schedule: Q01DX001 (ip), vehicle: saline): 189 % of control

O=c1[nH]cc(F)c(=O)[nH]1
T/C (dose: 5.0 mg/kg/injection, schedule: Q01DX009 (ip), vehicle: saline): 104 % of control and 108 % of control | T/C (dose: 10.0 mg/kg/injection, schedule: Q01DX009 (ip), vehicle: saline): 90 % of control and 116 % of control | T/C (dose: 20.0 mg/kg/injection, schedule: Q01DX009 (ip), vehicle: saline): 104 % of control and 112 % of control | T/C (dose: 40.0 mg/kg/injection, schedule: Q01DX009 (ip), vehicle: saline): 87 % of control and 109 % of control

O=C(O)CC(NC(=O)CP(=O)(O)O)C(=O)O (stereo unspecified)
T/C (dose: 32.0 mg/kg/injection, schedule: Q04DX003 (ip), vehicle: saline): 101 % of control | T/C (dose: 64.0 mg/kg/injection, schedule: Q04DX003 (ip), vehicle: saline): 96 % of control | T/C (dose: 128.0 mg/kg/injection, schedule: Q04DX003 (ip), vehicle: saline): 90 % of control | T/C (dose: 256.0 mg/kg/injection, schedule: Q04DX003 (ip), vehicle: saline): 101 % of control | T/C (dose: 512.0 mg/kg/injection, schedule: Q04DX003 (ip), vehicle: saline): 104 % of control | T/C (dose: 1024.0 mg/kg/injection, schedule: Q04DX003 (ip), vehicle: saline): 110 % of control

CN=NNc1nc[nH]c1C(N)=O
T/C (dose: 16.0 mg/kg/injection, schedule: Q01DX005 (ip), vehicle: saline): 106 % of control | T/C (dose: 32.0 mg/kg/injection, schedule: Q01DX005 (ip), vehicle: saline): 95 % of control | T/C (dose: 64.0 mg/kg/injection, schedule: Q01DX005 (ip), vehicle: saline): 102 % of control | T/C (dose: 128.0 mg/kg/injection, schedule: Q01DX005 (ip), vehicle: saline): 107 % of control

CCCCCN(C)/N=N/c1nc[nH]c1C(N)=O
T/C [1]: 120 % of control

Nc1ncnc2c1ncn2C1OC(COP(=O)(O)O)C(O)C1O (stereo unspecified)
T/C (dose: 1600.0 mg/kg/injection, schedule: Q01DX009 (ip), vehicle: saline): 99 % of control and 102 % of control

OC(CBr)C(O)C(O)C(O)CBr (stereo unspecified)
T/C (dose: 25.0 mg/kg/injection, schedule: Q01DX009 (ip), vehicle: saline): 92 % of control | T/C (dose: 50.0 mg/kg/injection, schedule: Q01DX009 (ip), vehicle: saline): 100 % of control and 108 % of control (2×) | T/C (dose: 100.0 mg/kg/injection, schedule: Q01DX009 (ip), vehicle: saline): 116 % of control and 117 % of control and 100 % of control | T/C (dose: 200.0 mg/kg/injection, schedule: Q01DX009 (ip), vehicle: saline): 117 % of control and 104 % of control | T/C (dose: 400.0 mg/kg/injection, schedule: Q01DX009 (ip), vehicle: saline): 120 % of control

CCC1=C(c2ccc(OC)cc2)CCC(C(=O)O)C1C (stereo unspecified)
T/C (dose: 4.0 mg/kg/injection, schedule: Q01DX005 (ip), vehicle: saline with Tween-80): 95 % of control | T/C (dose: 4.0 mg/kg/injection, schedule: Q01DX005 (ip), vehicle: suspension in saline): 103 % of control | T/C (dose: 8.0 mg/kg/injection, schedule: Q01DX005 (ip), vehicle: saline with Tween-80): 91 % of control | T/C (dose: 8.0 mg/kg/injection, schedule: Q01DX005 (ip), vehicle: suspension in saline): 95 % of control | T/C (dose: 16.0 mg/kg/injection, schedule: Q01DX005 (ip), vehicle: suspension in saline): 87 % of control | T/C [1]: 105 % of control | T/C (dose: 32.0 mg/kg/injection, schedule: Q01DX005 (ip), vehicle: suspension in saline): 95 % of control

CN(C)N=Nc1cccc2c1N(C)c1ccc(F)cc1S2
T/C (dose: 6.25 mg/kg/injection, schedule: Q01DX009 (ip), vehicle: other): 109 % of control | T/C (dose: 12.5 mg/kg/injection, schedule: Q01DX009 (ip), vehicle: other): 110 % of control | T/C (dose: 25.0 mg/kg/injection, schedule: Q01DX009 (ip), vehicle: other): 108 % of control | T/C (dose: 50.0 mg/kg/injection, schedule: Q01DX009 (ip), vehicle: other): 115 % of control | T/C (dose: 100.0 mg/kg/injection, schedule: Q01DX009 (ip), vehicle: other): 112 % of control

O=C1NC2(CCCCC2)C(=O)N1CCN(CCCl)CCCl
T/C (dose: 1.5 mg/kg/injection, schedule: Q01DX009 (ip), vehicle: saline with Tween-80): 97 % of control | T/C (dose: 3.0 mg/kg/injection, schedule: Q01DX009 (ip), vehicle: saline with Tween-80): 103 % of control | T/C (dose: 6.0 mg/kg/injection, schedule: Q01DX009 (ip), vehicle: saline with Tween-80): 106 % of control | T/C (dose: 12.0 mg/kg/injection, schedule: Q01DX009 (ip), vehicle: saline with Tween-80): 103 % of control

CC(=O)NNC(=O)c1ccccn1
T/C [2]: 104 % of control and 108 % of control | T/C (dose: 200.0 mg/kg/injection, schedule: Q01DX005 (ip), vehicle: Klucel (hydroxypropylcellulose) (HPC)): 100 % of control

CCC(=O)O[C@H]1CC[C@H]2[C@@H]3CC[C@H]4CC(=O)[C@H](C)C[C@]4(C)[C@H]3CC[C@]12C
T/C (dose: 8.0 mg/kg/injection, schedule: Q01DX009 (ip), vehicle: Klucel (hydroxypropylcellulose) (HPC)): 100 % of control | T/C (dose: 16.0 mg/kg/injection, schedule: Q01DX009 (ip), vehicle: Klucel (hydroxypropylcellulose) (HPC)): 94 % of control | T/C (dose: 32.0 mg/kg/injection, schedule: Q01DX009 (ip), vehicle: Klucel (hydroxypropylcellulose) (HPC)): 105 % of control | T/C (dose: 64.0 mg/kg/injection, schedule: Q01DX009 (ip), vehicle: Klucel (hydroxypropylcellulose) (HPC)): 100 % of control | T/C (dose: 128.0 mg/kg/injection, schedule: Q01DX009 (ip), vehicle: Klucel (hydroxypropylcellulose) (HPC)): 101 % of control | T/C (dose: 256.0 mg/kg/injection, schedule: Q01DX009 (ip), vehicle: Klucel (hydroxypropylcellulose) (HPC)): 103 % of control | T/C (dose: 512.0 mg/kg/injection, schedule: Q01DX009 (ip), vehicle: Klucel (hydroxypropylcellulose) (HPC)): 94 % of control

COc1cc(C[C@H]2c3cc(OC)c(OC)cc3CCN2C)c(Oc2cc3c(cc2OC)-c2c(OC)c(OC)cc4c2[C@H](C3)N(C)CC4)cc1OC
T/C (dose: 50.0 mg/kg/injection, schedule: Q01DX005 (ip), vehicle: Klucel (hydroxypropylcellulose) (HPC)): 120 % of control and 94 % of control | T/C [2]: 108 % of control

From PubChem BioAssay AID196 (DTP/NCI, 2004)
